Laboratory results as given in PMC5605198, “MELK is not necessary for the proliferation of basal-like breast cancer cells” (eLife, 2017).

Legend:
[1] = target: T1, MELK (Homo sapiens, UniProt P62942+Q14680); assay: Quantitative multiplexed proteomics (TMT LC-MS3); format: cell-based; settings: 250 nM, 60 min, MELK−/− MDA-MB-468-FKBP12^F36V-MELK cells
T1 construct: expressed in transfected cells; host or cells: MDA-MB-468 (lentiviral transduction, endogenous MELK knocked out)
Procedure: (§1) MELK−/− MDA-MB-468-FKBP12^F36V-MELK cells were treated in duplicates with DMSO for 30 minutes or 60 minutes, or in triplicates with dTAG-7 (250 nM) for 30 minutes or 60 minutes. Cells were washed with ice-cold PBS once, collected by scraping and centrifugation, and lysed in 1 mL of lysis buffer (8 M urea, 1% SDS, 50 mM Tris pH8.5 supplemented with protease and phosphatase inhibitors). A micro-BCA assay (Pierce) was used to determine the protein concentration of each sample. A total of 1200 µg of proteins from each sample was depleted of abundant proteins using two Pierce Top 12 protein depletion spin columns. Eluted proteins were combined, and protein concentration was determined by micro-BCA. […] Peptide quantification was performed using the micro-BCA assay (Pierce). […]
(§2) 12 of the 24 peptide fractions from the basic reverse phase fractionation (every other fraction) were analyzed with an LC-MS3 data collection strategy ([McAlister et al., 2014]) on an Orbitrap Fusion mass spectrometer (Thermo Fisher Scientific) equipped with a Proxeon Easy nLC 1000 for online sample handling and peptide separations. […]
(§3) A suite of in-house software tools were used to for. RAW file processing and controlling peptide and protein level false discovery rates, assembling proteins from peptides, and protein quantification from peptides as previously described. […]

[2] = test system: HNRNPR; assay: Quantitative multiplexed proteomics (TMT LC-MS3); format: cell-based, human; settings: 250 nM, 60 min, MELK−/− MDA-MB-468-FKBP12^F36V-MELK cells
Procedure: as §1, with “micro-BCA. Proteins were precipitated on ice for 1 hour with 13% trichloroacetic acid (TCA), washed twice with acetone, and pellets were allowed to air dry. Proteins were resuspended in 6 M urea, 50 mM Tris pH 8.5, reduced with 5 mM dithiothreitol (DTT) at room temperature for 1 hour, and alkylated with 15 mM iodoacetamide in the dark at room temperature for 1 hour. Alkylation was quenched with DTT. Urea concentration was reduced to 4 M and proteins were digested with LysC (1:50; enzyme:protein) for 6 hours at 25°C. The LysC digestion was diluted to 1 M urea, 50 mM Tris pH 8.5 and then digested with trypsin (1:100; enzyme:protein) overnight at 37°C.” for “micro-BCA.”
as §2, §3

[3] = test system: MKL1; assay: Quantitative multiplexed proteomics (TMT LC-MS3); format: cell-based, human; settings: 250 nM, 60 min, MELK−/− MDA-MB-468-FKBP12^F36V-MELK cells
Procedure: as §1, with “micro-BCA. Proteins were precipitated on ice for 1 hour with 13% trichloroacetic acid (TCA), washed twice with acetone, and pellets were allowed to air dry. Proteins were resuspended in 6 M urea, 50 mM Tris pH 8.5, reduced with 5 mM dithiothreitol (DTT) at room temperature for 1 hour, and alkylated with 15 mM iodoacetamide in the dark at room temperature for 1 hour. Alkylation was quenched with DTT. Urea concentration was reduced to 4 M and proteins were digested with LysC (1:50; enzyme:protein) for 6 hours at 25°C. The LysC digestion was diluted to 1 M urea, 50 mM Tris pH 8.5 and then digested with trypsin (1:100; enzyme:protein) overnight at 37°C.” for “micro-BCA.”
as §2, §3

[4] = test system: EEA1; assay: Quantitative multiplexed proteomics (TMT LC-MS3); format: cell-based, human; settings: 250 nM, 60 min, MELK−/− MDA-MB-468-FKBP12^F36V-MELK cells
Procedure: as §1, with “micro-BCA. Proteins were precipitated on ice for 1 hour with 13% trichloroacetic acid (TCA), washed twice with acetone, and pellets were allowed to air dry. Proteins were resuspended in 6 M urea, 50 mM Tris pH 8.5, reduced with 5 mM dithiothreitol (DTT) at room temperature for 1 hour, and alkylated with 15 mM iodoacetamide in the dark at room temperature for 1 hour. Alkylation was quenched with DTT. Urea concentration was reduced to 4 M and proteins were digested with LysC (1:50; enzyme:protein) for 6 hours at 25°C. The LysC digestion was diluted to 1 M urea, 50 mM Tris pH 8.5 and then digested with trypsin (1:100; enzyme:protein) overnight at 37°C.” for “micro-BCA.”
as §2, §3

[5] = test system: FKBP12^F36V-MELK(sg3R); assay: dTAG-induced degradation, immunoblot; format: cell-based; settings: MELK−/− MDA-MB-468-FKBP12^F36V-MELK(sg3R) cells
Procedure: Four dTAG molecules (7, 13, 36 and 47) that vary in linker length and chemical structure were tested for their efficiency at depleting FKBP12^F36V-MELK(sg3R) (Figure 4A, Figure 4—figure supplement 3).
Figure 4. […] (A) Chemical structure of heterobifunctional dTAG molecule dTAG-47. See also Figure 4—figure supplement 3 for the chemical structures of dTAG-7, dTAG-13 and dTAG-36. (B) Immunoblots for MELK and GAPDH after treatment of dTAG-7, 13, 36, and 47 at indicated concentrations in MELK−/− MDA-MB-468-FKBP12^F36V-MELK(sg3R) cells for 4 hours. See Figure 4—figure supplement 1 for details of the generation of MELK−/− MDA-MB-468-FKBP12^F36V-MELK(sg3R) clones. (C) Same as in 4B, but with treatment at 500 nM and extended treatment times for 14, 24, 48, and 72 hours. (D) Changes in abundance of 7270 proteins (peptide count ≥2) comparing MELK−/− MDA-MB-468-FKBP12^F36V-MELK cells treated with dTAG-7 (250 nM) or DMSO for 1 hour, versus p-value (dTAG-7: triplicate, DMSO: duplicate, limma moderated t-test). See also Figure 4—source datas 1 and 2 for the original and the processed data. (E) Crystal violet staining image showing parental MDA-MB-468 cells and MELK−/− MDA-MB-468-FKBP12^F36V-MELK(sg3R) cells after treatment with DMSO or 500 nM of dTAG-47 for 9 days. Immunoblots showing MELK and GAPDH from a duplicate plate on Day 9 confirmed sustained depletion of FKBP12^F36V-MELK(sg3R). These are representative data from one of two independent experiments. Figure 4—source data 1. Raw integrated ion intensities from quantitative multiplexed proteomics. Figure 4—source data 2. Processed Data and Statistical Analysis by limma (topTable). Figure 4—figure supplement 1. Single clones selected from MDA-MB-468-FKBP12^F36V-MELK(sg3R) cells subject to CRISPR/Cas9-mediated knockout of endogenous MELK. Immunoblots for MELK and GAPDH in single cell clones selected from MDA-MB-468-FKBP12^F36V-MELK(sg3R) transfected with Cas9/sgMELK-3 to knockout endogenous MELK. Clone 1D4 is clone 1 and clone 1A3 is clone 2 in Figure 4. Clone 1D4 was confirmed with heterozygous −1 and +1 indels; clone 1A3 was confirmed with homozygous −1 deletions. [drawing 5] Figure 4—figure supplement 2. […] (A) Immunoblots for MELK, cyclin B1 and GAPDH in asynchronous versus M-phase arrested MDA-MB-468 cells and MDA-MB-468-FKBP12^F36V-MELK(sg3R) cells (clone 1). […] Chemical structures of dTAG molecules. FKBP12^F36V-binding ligands conjugated by variable linkers to thalidomide or pomalidomide, including (A) dTAG-7, (B) dTAG-13 and (C) dTAG-36 are capable of inducing degradation of FKBP12^F36V-tagged proteins of interest. [drawing 7]

T1 sequence (P62942+Q14680 fused P62942:F37V): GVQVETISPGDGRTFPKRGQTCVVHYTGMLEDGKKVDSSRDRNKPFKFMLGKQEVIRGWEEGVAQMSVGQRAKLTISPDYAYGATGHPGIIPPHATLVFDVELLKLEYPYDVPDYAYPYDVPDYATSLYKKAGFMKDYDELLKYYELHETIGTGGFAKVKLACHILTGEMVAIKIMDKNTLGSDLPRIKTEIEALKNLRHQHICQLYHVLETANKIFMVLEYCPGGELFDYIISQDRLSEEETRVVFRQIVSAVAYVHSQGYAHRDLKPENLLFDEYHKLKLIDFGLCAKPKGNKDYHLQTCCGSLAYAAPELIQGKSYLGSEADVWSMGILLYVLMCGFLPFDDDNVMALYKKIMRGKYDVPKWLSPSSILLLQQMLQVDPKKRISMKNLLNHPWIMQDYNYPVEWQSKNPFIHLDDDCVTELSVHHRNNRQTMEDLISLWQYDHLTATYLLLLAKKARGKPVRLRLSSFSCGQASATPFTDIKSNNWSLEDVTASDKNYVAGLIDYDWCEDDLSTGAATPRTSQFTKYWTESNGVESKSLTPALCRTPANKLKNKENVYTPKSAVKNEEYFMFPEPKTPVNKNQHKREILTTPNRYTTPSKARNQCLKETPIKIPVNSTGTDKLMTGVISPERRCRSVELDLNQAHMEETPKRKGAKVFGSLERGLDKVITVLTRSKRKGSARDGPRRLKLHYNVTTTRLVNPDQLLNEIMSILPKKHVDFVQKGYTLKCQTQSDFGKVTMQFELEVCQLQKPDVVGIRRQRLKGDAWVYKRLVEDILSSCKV
T1 sequence (Q96SW2 whole entry partner): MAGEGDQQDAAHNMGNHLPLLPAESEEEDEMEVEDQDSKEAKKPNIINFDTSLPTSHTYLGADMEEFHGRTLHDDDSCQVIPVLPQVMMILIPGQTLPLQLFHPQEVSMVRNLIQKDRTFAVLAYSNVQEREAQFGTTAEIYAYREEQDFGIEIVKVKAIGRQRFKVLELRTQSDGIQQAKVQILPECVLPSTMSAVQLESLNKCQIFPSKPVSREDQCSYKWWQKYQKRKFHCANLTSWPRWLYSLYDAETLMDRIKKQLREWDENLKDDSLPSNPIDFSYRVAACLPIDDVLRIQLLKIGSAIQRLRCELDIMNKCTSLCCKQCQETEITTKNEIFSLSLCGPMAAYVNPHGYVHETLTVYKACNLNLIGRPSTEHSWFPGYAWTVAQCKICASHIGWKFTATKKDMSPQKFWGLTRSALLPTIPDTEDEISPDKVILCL
T1 sequence (Q16531 2-1140 partner limits assumed): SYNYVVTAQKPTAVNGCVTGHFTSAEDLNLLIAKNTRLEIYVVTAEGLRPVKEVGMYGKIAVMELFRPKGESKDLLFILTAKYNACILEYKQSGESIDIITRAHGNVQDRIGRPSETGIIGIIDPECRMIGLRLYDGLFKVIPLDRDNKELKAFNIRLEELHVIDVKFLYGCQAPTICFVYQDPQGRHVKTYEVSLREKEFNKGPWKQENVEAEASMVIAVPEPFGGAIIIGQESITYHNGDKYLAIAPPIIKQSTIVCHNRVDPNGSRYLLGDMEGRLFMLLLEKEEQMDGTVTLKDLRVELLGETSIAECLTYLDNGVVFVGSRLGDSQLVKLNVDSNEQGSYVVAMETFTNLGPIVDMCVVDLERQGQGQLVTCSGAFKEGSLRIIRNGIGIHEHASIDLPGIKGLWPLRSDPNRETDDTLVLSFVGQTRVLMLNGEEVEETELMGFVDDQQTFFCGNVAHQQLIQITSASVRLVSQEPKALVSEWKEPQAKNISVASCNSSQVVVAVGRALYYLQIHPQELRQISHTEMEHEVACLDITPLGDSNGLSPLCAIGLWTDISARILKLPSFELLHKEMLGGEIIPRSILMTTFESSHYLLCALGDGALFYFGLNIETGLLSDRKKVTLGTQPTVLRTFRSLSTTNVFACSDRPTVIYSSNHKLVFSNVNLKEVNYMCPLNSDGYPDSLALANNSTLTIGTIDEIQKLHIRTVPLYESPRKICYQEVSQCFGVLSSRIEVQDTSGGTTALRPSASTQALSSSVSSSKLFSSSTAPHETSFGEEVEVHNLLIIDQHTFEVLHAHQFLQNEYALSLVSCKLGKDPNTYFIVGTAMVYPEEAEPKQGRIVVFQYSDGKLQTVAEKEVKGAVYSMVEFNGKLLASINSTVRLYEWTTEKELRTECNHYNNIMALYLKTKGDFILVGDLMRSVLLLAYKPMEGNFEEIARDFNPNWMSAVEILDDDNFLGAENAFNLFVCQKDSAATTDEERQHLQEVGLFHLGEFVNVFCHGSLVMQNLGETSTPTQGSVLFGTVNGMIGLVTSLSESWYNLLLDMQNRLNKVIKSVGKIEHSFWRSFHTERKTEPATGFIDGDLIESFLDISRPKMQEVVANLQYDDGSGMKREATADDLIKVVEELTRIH

CCC(C(=O)N1CCCCC1C(=O)OC(CCc1ccc(OC)c(OC)c1)c1ccccc1OCC(=O)NCCCOCCOCCOCCCNC(=O)COc1cccc2c1C(=O)N(C1CCC(=O)NC1=O)C2=O)c1cc(OC)c(OC)c(OC)c1 (centres unmarked) [dTAG-7]
logFC (log2 fold change of dTAG-7 to DMSO) MELK [1]: -0.8583 | logFC (log2 fold change of dTAG-7 to DMSO) HNRNPR [2]: 0.28 | logFC (log2 fold change of dTAG-7 to DMSO) MKL1 [3]: -0.2984 | logFC (log2 fold change of dTAG-7 to DMSO) EEA1 [4]: -0.08592 | time to efficient depletion of FKBP12^F36V-MELK(sg3R) [5]: ≤ 4 h
